Data as given in US9445605B2, “Method for disinfection or infection control against a non-enveloped virus” (Hiroshima University, priority 2006, dated 2016).

Key:
Rotavirus Wa Strain = assay: Rotavirus infectivity after reagent treatment (fluorescent staining of MA104 cells); conditions: equal amounts of virus and reagent, 3 minutes at room temperature; for Residual infectivity after treatment: MA104 cells
Procedure: Equal amounts (35 μL) of a virus solution and a reagent were mixed, followed by reaction at room temperature for 3 minutes. A 10-fold dilution series was formed using a diluent (MEM) and the MA104 cells on a cover slip (9×28 mm) were infected with 50 μL of the virus solution. After adsorption for 1 hour, the cells were washed with PBS one time and a growth medium (10% PBS-MEM) was added, followed by culture.
One day after, fluorescent staining was performed with anti-rotavirus antibody (monoclonal antibody: Abgene REMEI-1) and Alexa Fluor 488-labeled anti-mouse IgG antibody (SantaCruz Biotechnology), and positive cells were counted in a field of view under a fluorescent microscope (400 times) (average area of 20 fields of view). The number of positive cells per cover slip was calculated on the basis of the area of the field of view, and further infectivity per mL of virus solution was calculated (unit: CIU (cell infecting units)/ml; Kiyotani et al., Virology 177:65-74, 1990). When the number of positive cells was small, the positive cells were measured by observing the whole of the cover slip.

Feline calicivirus = Feline calicivirus infectivity after reagent treatment (TCID50 in CRFK cells); assay type: cell-based; conditions: equal amounts of virus and reagent, 3 minutes at room temperature
Procedure: To eliminate the influence of serum contained in the original virus, a virus solution was previously 5 times diluted with a diluent (Eagle's minimum essential medium, penicillin G, streptomycin). Equal amounts (35 μL) of the diluted virus solution and each reagent were mixed and allowed to react at room temperature for 3 minutes. Then, a ten-fold dilution series was prepared using the diluent.
Monolayer CRFK cells on a 96-well plate were washed with PBS one time and then the diluted virus solution was inoculated (50 μl/well). After incubation with a CO2 incubator for adsorption and penetration of the virus for 1 hour, the cells were washed with PBS one time, and then a maintenance solution (the same as the diluent) was added (100 μL/well), followed by culture. Three days after, the cells were fixed and stained after extension of CPE, and a 50% infectious dose (unit: 50% tissue culture infectious dose [TCID50]) was calculated using a Behrens-Kaerber method to measure viral infectivity.

[1] = tested on: Coxsackie virus group B, type 5; assay: Coxsackie virus infectivity after reagent treatment (TCID50 in FL cells); assay type: cell-based
Procedure: The FL cells were infected with the virus, and a 50% infection dose (unit: 50% tissue culture infectious dose [TCID50]) was calculated.
To eliminate the influence of serum contained in original viruses, a virus solution was previously 50 times diluted with PBS.

[2] = tested on: Adenovirus (nonproliferating, adenovirus type-5-derived); assay: Adenovirus infectivity after reagent treatment (fluorescent staining of FL cells); assay type: cell-based
Procedure: Monolayer FL cells (cell line contaminated with HeLa cells (derived from human cervical cancer epithelial cells)) on the cover slip (9×28 mm) were washed with PBS one time and then infected with a 50 μL of virus solution. After adsorption for 1 hour, the cells were washed with PBS one time, and then a maintenance solution (the same as the diluent) was added, followed by culture.
Two days after, fluorescent staining was performed with anti-adenovirus antibody (monoclonal antibody: Chemicon MAB805) and Alexa Fluor 488-labeled anti-mouse IgG antibody (SantaCruz Biotechnology), and positive cells were counted in a field of view under a fluorescent microscope (400 times) (average of 20 fields of view was calculated).

[3] = Measurement of pH of the reagents; assay type: physicochemical; conditions: summary Table 9
From the text: Also, the experiment was repeated to confirm reproducibility.

[4] = equal amounts of virus and reagent, 3 minutes at room temperature
[5] = equal amounts of virus and reagent, 3 minutes at room temperature, FL cells

SMILES	Infectivity ratio (to PBS) (Rotavirus Wa Strain)	Residual infectivity after treatment (Rotavirus Wa Strain) [CIU/ml]	Effect (times) (to PBS) (Feline calicivirus)	Infectivity ratio (to PBS) (Feline calicivirus)	Infectivity (TCID50/ml) (Feline calicivirus; CRFK cells)	Anti-Coxsackie virus activity (in words) [1]	Effect (times) (to PBS) [1, 4]	Infectivity ratio (to PBS) [1, 4]	Infectivity (TCID50/ml) [1, 5] [TCID50/ml]	Inactivation activity for adenovirus (in words) [2]	Effect (times) (to PBS) [2, 4]	Infectivity ratio (to PBS) [2, 4]	Residual infectivity after treatment [2, 5] [CIU/ml]	pH [3]
CCO [80% (v/v) ethanol, ethanol]	0	0	–	–	–	–	–	–	–	–	–	–	–	–
CCO [50% (v/v) ethanol, ethanol]	0.06	6.2E+05	12	0.09	3.2E+07	no anti-Coxsackie virus activity	1	1.778	3.2E+07	no inactivation ability	4	0.2	7.7E+07	5.09
